Drawing on patent US12264134B2 (Merck Sharp & Dohme LLC, priority 2018, dated 2025), this text covers IC50 for eight molecules.

As a reminder, the IC50 is the concentration needed to halve the response being measured.

Assay [1] addresses T1, IDO1 (Homo sapiens, UniProt P14902). Kind of assay: IDO1 Cellular Assay in HeLa Cells Stimulated with IFNγ. The format is cell-based. The following applies: read-out: HeLa Cell Potency, IC50.
For assay [2], the target named is T1, IDO1. Kind of assay: IDO1 Human Whole blood Assay. The format is cell-based. Also on record: Human whole blood was drawn in sodium heparin coated tubes from healthy internal donors; from tissue; host or cells: human whole blood from healthy donors, stimulated with LPS and IFNγ. The following applies: LPS and IFNγ stimulated, 18 h, read-out: Human Whole Blood Potency, IC50. The essentials: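 LC/MS/MS of kynurenine, normalized to spiked isotope-labeled standard (3 μM final), served as the readout. Beforehand, fresh human blood with compound (15 min preincubation) was stimulated overnight (18 h, 37 °C) with 100 ng/mL LPS/IFNγ. IC50 was obtained by four-parameter curve fitting.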

T1 sequence (P14902 whole entry): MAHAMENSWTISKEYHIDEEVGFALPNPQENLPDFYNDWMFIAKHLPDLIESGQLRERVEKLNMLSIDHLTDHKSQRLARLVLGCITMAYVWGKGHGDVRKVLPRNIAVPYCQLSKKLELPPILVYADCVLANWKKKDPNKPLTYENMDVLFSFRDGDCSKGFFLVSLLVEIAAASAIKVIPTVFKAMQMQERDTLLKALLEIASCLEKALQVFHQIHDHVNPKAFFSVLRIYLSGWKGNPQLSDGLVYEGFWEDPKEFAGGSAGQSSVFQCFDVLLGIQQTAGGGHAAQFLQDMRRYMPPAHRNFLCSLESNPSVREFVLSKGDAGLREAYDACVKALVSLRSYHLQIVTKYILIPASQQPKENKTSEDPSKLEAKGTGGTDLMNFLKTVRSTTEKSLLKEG

Take `Cc1c(F)ccc(N2CCN(C(=O)Cn3nc(C(=O)N4CCN(C(=O)CO)CC4)c4c3C[C@H]3C[C@@H]43)C3(CC3)C2)c1C` [Example 319, 1-[7-(4-fluoro-2,3-dimethylphenyl)-4,7-diazaspiro[2.5]octan-4-yl]-2-{(3bR,4aR)-3-[4-(hydroxyacetyl)piperazine-1-carbonyl]-3b,4,4a,5-tetrahydro-1H-cyclopropa[3,4]cyclopenta[1,2-c]pyrazol-1-yl}ethan-1-one]: the values for the IC50 at IDO1 [1] and on IDO1 [2] were 1.31 nM and 452 nM, respectively.
Take `CC(=O)NC1CCN(C(=O)c2nn(CC(=O)N3CCN(c4ccc(F)c(C)c4C)CC34CC4)c3c2[C@@H]2C[C@@H]2C3)CC1` [Example 320, N-{1-[(3bR,4aR)-1-{2-[7-(4-fluoro-2,3-dimethylphenyl)-4,7-diazaspiro[2.5]octan-4-yl]-2-oxoethyl}-3b,4,4a,5-tetrahydro-1H-cyclopropa[3,4]cyclopenta[1,2-c]pyrazole-3-carbonyl]piperidin-4-yl}acetamide]: the IC50 on IDO1 [1] amounted to 1.31 nM; on IDO1 [2] it was 347 nM.
The matching figures for `Cc1c(F)ccc(N2CCN(C(=O)Cn3nc(C(=O)N4CCC(OCCO)CC4)c4c3C[C@H]3C[C@@H]43)C3(CC3)C2)c1C` [Example 321, 1-[7-(4-fluoro-2,3-dimethylphenyl)-4,7-diazaspiro[2.5]octan-4-yl]-2-{(3bR,4aR)-3-[4-(2-hydroxyethoxy)piperidine-1-carbonyl]-3b,4,4a,5-tetrahydro-1H-cyclopropa[3,4]cyclopenta[1,2-c]pyrazol-1-yl}ethan-1-one]: 1.47 nM and 508 nM.
The matching figures for `Cc1c(F)ccc(N2CCN(C(=O)Cn3nc(C(=O)N4CCN(CC(N)=O)CC4)c4c3C[C@H]3C[C@@H]43)C3(CC3)C2)c1C` [Example 322, 2-{4-[(3bR,4aR)-1-{2-[7-(4-fluoro-2,3-dimethylphenyl)-4,7-diazaspiro[2.5]octan-4-yl]-2-oxoethyl}-3b,4,4a,5-tetrahydro-1H-cyclopropa[3,4]cyclopenta[1,2-c]pyrazole-3-carbonyl]piperazin-1-yl}acetamide]: 1.6 nM and 1050 nM.
The corresponding values for `Cc1c(F)ccc(N2CCN(C(=O)Cn3nc(C(=O)N4CCC(O)(CO)CC4)c4c3C[C@H]3C[C@@H]43)C3(CC3)C2)c1C` [Example 323, 1-[7-(4-fluoro-2,3-dimethylphenyl)-4,7-diazaspiro[2.5]octan-4-yl]-2-{(3bR,4aR)-3-[4-hydroxy-4-(hydroxymethyl)piperidine-1-carbonyl]-3b,4,4a,5-tetrahydro-1H-cyclopropa[3,4]cyclopenta[1,2-c]pyrazol-1-yl}ethan-1-one] are 0.69 nM and 1800 nM.
Turning to `Cc1cccc(N2CCN(C(=O)Cn3nc(C(=O)N4CCC(O)C(F)C4)c4c3CCC4)C3(CC3)C2)c1C` (stereo not shown) [Example 325, 1-[7-(2,3-dimethylphenyl)-4,7-diazaspiro[2.5]octan-4-yl]-2-[3-(3-fluoro-4-hydroxy-piperidine-1-carbonyl)-5,6-dihydro-4H-cyclopenta[c]pyrazol-1-yl]ethanone], the IC50 turned out to be 4.08 nM at IDO1 [1] and 625 nM on IDO1 [2].
The matching figures for `Cc1cccc(N2CCN(C(=O)Cn3nc(C(=O)N4CC[C@H](O)[C@H](F)C4)c4c3C[C@H]3C[C@@H]43)C(C)(C)C2)c1C` [Example 331, 1-[4-(2,3-dimethylphenyl)-2,2-dimethylpiperazin-1-yl]-2-{(3bR,4aR)-3-[(3R,4S)-3-fluoro-4-hydroxypiperidine-1-carbonyl]-3b,4,4a,5-tetrahydro-1H-cyclopropa[3,4]cyclopenta[1,2-c]pyrazol-1-yl}ethan-1-one]: 84.5 nM and 9120 nM.
The corresponding values for `Cc1cccc(N2CCN(C(=O)Cn3nc(C(=O)N4CCC(O)(CF)CC4)c4c3C[C@H]3C[C@@H]43)C(C)(C)C2)c1C` [Example 332, 1-[4-(2,3-dimethylphenyl)-2,2-dimethylpiperazin-1-yl]-2-{(3bR,4aR)-3-[4-(fluoromethyl)-4-hydroxypiperidine-1-carbonyl]-3b,4,4a,5-tetrahydro-1H-cyclopropa[3,4]cyclopenta[1,2-c]pyrazol-1-yl}ethan-1-one] are 70 nM and 9490 nM.
